# Measured values taken from patent US20230398130A1, “METHODS AND COMPOSITIONS FOR DIFFERENTIATING STEM CELLS” (Massachusetts Institute of Technology, priority 2020, published 2023).
# “Also recorded” adds a separate entry of the source. Where two headings read alike, the source gives them in different places.
# Tests used:
# lysozyme (LYZ) = assay: Western blotting of lysozyme in 3D-cultured intestinal organoids; assay type: cell-based, murine; details: organoids cultured 6 days in ENR+CV, ENR+CD or ENR
# Source text: Western blotting. ISC-enriched organoids cultured in 3D Matrigel with ENRCV media were passaged to 24-well plate in 3D Matrigel with ENRCV. At day zero, media were replaced to ENR or ENRCD with or without indicated compounds, and media were replaced every other day. At day six, cells were harvested from Matrigel by mechanical disruption and suspended in basal media. Cell pellets were lysed with Pierce© IP lysis buffer (ThermoFisher, 87787) containing Halt™ Protease Inhibitor Cocktail, EDTA-Free (ThermoFisher, 87785) after 3-minute centrifuge at 300×g at 4° C. Cell extracts were resolved by NuPAGE© SDS-PAGE Gel system (ThermoFisher) and electroblotted onto polyvinylidene difluoride membranes using Criterion™ Blotter (Biorad). The membranes were blocked with 2% Blotting-Grade Blocker (Biorad, 1706404) in TBS-T (50 mM Tris-HCl, 150 mM NaCl, and 0.1% Tween 20, pH 8.0) and then probed with appropriate antibodies. Detection was performed using ECL Select™ Western Blotting Detection Reagent (Amersham, 45-000-999) and ImageQuant LAS4000 (GE Healthcare).
# Western blotting. Organoid-containing gel was homogenized in basal medium and centrifuged at 300 rcf for 3 min. Organoid pellet was lysed with ice-cold Pierce IP Lysis Buffer (Thermo Fisher Scientific, #87787) containing Halt Protease Inhibitor Cocktail, EDTA-Free (Thermo Fisher Scientific, #87785) and incubated on ice for 20 min. The lysate was centrifuged at 17,000 rcf for 10 min, and the supernatant was combined with NuPAGE LDS Sample Buffer (Thermo Fisher Scientific, NP0007). Protein concentration was determined by Pierce 660 nm Protein Assay (Thermo Fisher Scientific, #22660) and normalized to the lowest concentration among each sample set. […] Chemiluminescent signals were detected by LAS4000 (GE Healthcare) using Amersham ECL Select Western Blotting Detection Reagent (GE Healthcare, #45-000-999), and total protein signals were obtained by Odyssey Imaging System (LI-COR Biosciences) using REVERT Total Protein Stain Kit (LI-COR Biosciences, #926-11010).
# Paneth cells [1] = assay: Flow cytometry of 3D-cultured intestinal organoids (ENR+CD, 6 days): Paneth cell fraction (lysozyme-positive, CD24-mid); assay type: cell-based, murine; details: ENR+CD 6 days; for Paneth cell proportion in organoids: 2 ng/mL Leptomycin B
# Description: Flow cytometry analysis (3D culture). ISC-enriched organoids cultured in 3D Matrigel with ENRCV media were passaged to 24-well plate in 3D Matrigel with ENRCV. At day zero, media were replaced to ENRCD with or without indicated compounds, and media were replaced every other day. […] Flow cytometry was performed using an LSR Fortessa (BD; Koch Institute Flow Cytometry Core at MIT). The data were analyzed using FlowJo v10 software.
# Single live cells were selected by several gating strategies and Paneth cells were identified as lysozyme-high, CD24-mid, side scatter-high (SSC-high) (FIG. 27E). […] To evaluate whether the culture media supplements C and D may alter the effects of the 6 hits, Applicants also performed lysozyme assay in the canonical ENR culture condition in 3-D (because Paneth cells exist in an immature state within ENR, Applicants were unable to robustly quantify Paneth cell number via flow cytometry).
# (§1) Flow cytometry. ISC-enriched organoids in 3D Matrigel culture were passaged to a 48-well plate and induced differentiation for 6 days by ENR+CD media containing DMSO or each drug indicated in the figures. DMSO- or drug-containing media were changed every other day. […] After vigorous pipetting and incubation at 37° C. for 15 min, the cell solution was diluted twice with basal media and centrifuged at 300 rcf for 3 min. […] The cell solution was centrifuged again at 300 rcf for 3 min at 4° C. to pellet the cells. […] Cells were centrifuged again for 3 min at 300 rcf and blocked with staining buffer (FACS buffer containing 0.5% Tween20 (Sigma, P2287)) for 15 min at RT in the dark. […] Flow cytometry was performed using an LSR Fortessa (BD; Koch Institute Flow Cytometry Core at MIT). Flow cytometry data were analyzed using FlowJo X v10.6.1 software.
# Live Paneth cells were identified as LYZ-high, CD24-mid, side scatter-high (SSC-high) (FIG. 50F).
# as §1, with “organoids in 3-D Matrigel culture” for “organoids in 3D Matrigel culture”, “to a 24- or 48-well plate” for “to a 48-well plate”
# Paneth cells [2] = assay: Immunofluorescent imaging of organoids: LYZ+ cells per organoid area; assay type: cell-based, murine; details: 2 ng/mL Leptomycin B, ENR+CD 3 days
# Description: Immunofluorescent imaging. For immunofluorescence staining of organoids, intestinal organoids in Matrigel were fixed with 4% paraformaldehyde, then transferred to centrifuge tube. After washing with PBS, the isolated organoids were permeabilized with 1% Triton X followed by incubation with blocking buffer (1% BSA+3% Donkey Serum+0.2% Triton X in PBS) at RT. The organoids were then stained with primary antibodies and fluorescent dye-labeled secondary antibodies as well as with DAPI. Slides were covered with […]® Mounting Media (VECTOR). The following primary and secondary antibodies were used for the staining: rabbit anti-Lysozyme (1:1000, Thermo Fisher Scientific), rat anti-E-cadherin (1:1000, Thermo Fisher Scientific), Alexa Fluor 488 and 568 secondary antibodies (1:1000, Invitrogen). Images were acquired with a confocal laser scanning microscope (Nikon Eclipse 90i). For the analysis of Lysozyme+ cells per organoid area, the number of counted Lysozyme+ cells were normalized to measured organoid surface area. Image J was used for the data analysis.
# ISC-enriched organoids [3] = assay: Primary screen, 384-well 2.5-D organoid differentiation (ENR+CD, 6 days, Target Selective Inhibitor Library, vs whole-plate median): ATP (CellTiter-Glo 3D, CTG); details: standard z score of FC
# ISC-enriched organoids [4] = assay: Secondary (validation) screen, 384-well 2.5-D, ENR+CD 6 days, n=8 wells, vs ENR+CD+DMSO control: ATP (CTG); assay type: cell-based, murine
# Description: (§2) Drugs were tested at a narrowed dose range around each treatment's identified optimal dose from the primary screen (4× below, 2× above and below).
# (§3) High-throughput screening.
# (§4) Secondary lysozyme secretion assay screen. Confirmatory secondary screening with primary hits was performed using the above 384-well plate method. The screen was conducted with 4-plate replicates with a base media of ENR+CD. Media was supplemented with compound at day 0 and day 3 (n=8 well replicates per dose) at four different doses: two-fold above, two-fold below, and four-fold below the optimal final dose for each respective treatment. Additionally, each plate carried a large number of ENR+DMSO or ENR+CD+DMSO (vehicle) control wells (n=100 for ATP, and n=25 for LYZ.NS and LYZ.S) for robust normalization. ATP, non-stimulated lysozyme activity and CCh-stimulated lysozyme activity was again measured and the collected data was again processed in a custom R-script, per primary screen with slight modification. Values were log10 transformed, and a plate-wise FC was calculated for each well based on the median value of ENR+CD+DMSO (vehicle) control wells to normalize plate to plate variability.
# ISC-enriched organoids [5] = assay: Secondary (validation) screen, 384-well 2.5-D, ENR+CD 6 days, n=8 wells, vs ENR+CD+DMSO control: carbachol-induced lysozyme secretion (LYZ.S); assay type: cell-based, murine
# Description: as §2, §3, §4
# ISC-enriched organoids [6] = assay: Secondary (validation) screen, 384-well 2.5-D, ENR+CD 6 days, n=8 wells, vs ENR+CD+DMSO control: basal lysozyme secretion (LYZ.NS); assay type: cell-based, murine
# Description: as §2, §3, §4
# [7] = tested on: ISC-enriched organoid cultures; assay type: cell-based
# Description: Using the ISC-enriched organoid cultures, Applicants sought to assess the role of vitamin D's multiple metabolites on ISC proliferation and differentiation in vitro. Treatment of ISC-enriched organoid cultures with multiple vitamin D metabolites at 50 nM drives a reduction in cell number after 4 days of exposure (FIG. 45A). This reduction is attributed to reduced ISC self-renewal and differentiation to terminal epithelial cell types. To confirm increased differentiation of ISC-enriched organoids, mRNA markers of epithelial cells were assessed via quantitative PCR (FIG. 45B). […] By enhancing ISC differentiation, Applicants hypothesized that it may be possible to enhance barrier repair or integrity in IBD. Such effect could act synergistically with other known effects of vitamin D, and provide enhanced therapeutic benefit.
# After observing that calcitriol, the primary active vitamin D metabolite, drove the most profound differentiation effect on in vitro ISC cultures, Applicants sought to investigate whether or not this effect is dose-dependent. Again, Applicants used the ISC-enriched organoid culture, and exposed varying concentrations of calcitriol for 4-day treatment periods.
# Given that WNT signaling is central to ISC self-renewal and maintenance, Applicants investigated the role of calcitriol on ISC proliferation and WNT signal activity.
# [8] = calcitriol 1 nM to 100 nM, 4-day treatment
compound,measurement,setting,value
CCC(=C/[C@H](C)C/C=C/C(C)=C/[C@@H](C)C(=O)[C@@H](C)[C@H](O)[C@@H](C)C/C(C)=C/C(=O)O)/C=C/[C@@H]1OC(=O)C=C[C@@H]1C [Leptomycin B],LYZ abundance per unit protein (Western blotting),lysozyme (LYZ),appreciably increase LYZ abundance
same,Paneth cell proportion in organoids,Paneth cells [1],statistically significant increases in Paneth cell representation
same,Paneth cell proportion in organoids,Paneth cells [1]; listed as leptomycin B,increased the proportion of PC; also recorded: increasing the proportion of Paneth cells
same,proportion of Paneth cells (IF imaging),Paneth cells [2],increasing the proportion of Paneth cells
"Cc1cn(-c2cc(NC(=O)c3ccc(C)c(Nc4nccc(-c5cccnc5)n4)c3)cc(C(F)(F)F)c2)cn1 [Nilotinib (AMN-107), Nilotinib]",Z.CTG,ISC-enriched organoids [3]; Dose 0.08 uM,0.769
same,Z.CTG,ISC-enriched organoids [3]; Dose 0.40 uM,0.831
same,Z.CTG,ISC-enriched organoids [3]; Dose 2.00 uM,0.577
same,Z.CTG,ISC-enriched organoids [3]; Dose 10.00 uM,−0.029
same,mature Paneth cell population within organoids,"Paneth cells [1]; hit compound at most potent dose from 2.5-D screening, 3-D culture, vs control",significantly decreased Paneth abundance
same,total cell number,"Paneth cells [1]; hit compound at most potent dose, 3-D culture",significantly increasing total cell number
same,Z.CTG,ISC-enriched organoids [4]; Dose 0.10 uM,0.830
same,repSSMD.CTG,ISC-enriched organoids [4]; Dose 0.10 uM,0.571
same,Z.CTG,ISC-enriched organoids [4]; Dose 0.20 uM,1.098
same,repSSMD.CTG,ISC-enriched organoids [4]; Dose 0.20 uM,0.777
same,Z.CTG,ISC-enriched organoids [4]; Dose 0.80 uM,2.104
same,repSSMD.CTG,ISC-enriched organoids [4]; Dose 0.80 uM,1.535
same,Z.CTG,ISC-enriched organoids [4]; dose 0.40 uM,1.275
same,repSSMD.CTG,ISC-enriched organoids [4]; dose 0.40 uM,0.902
same,Z.LYZ.S,ISC-enriched organoids [5]; Dose 0.10 uM,0.339
same,repSSMD.LYZ.S,ISC-enriched organoids [5]; Dose 0.10 uM,0.652
same,Z.LYZ.S,ISC-enriched organoids [5]; Dose 0.20 uM,0.897
same,repSSMD.LYZ.S,ISC-enriched organoids [5]; Dose 0.20 uM,1.324
same,Z.LYZ.S,ISC-enriched organoids [5]; Dose 0.80 uM,1.099
same,repSSMD.LYZ.S,ISC-enriched organoids [5]; Dose 0.80 uM,0.953
same,Z.LYZ.S,ISC-enriched organoids [5]; dose 0.40 uM,−0.053
same,repSSMD.LYZ.S,ISC-enriched organoids [5]; dose 0.40 uM,−0.055
same,Z.LYZ.NS,ISC-enriched organoids [6]; Dose 0.10 uM,0.734
same,repSSMD.LYZ.NS,ISC-enriched organoids [6]; Dose 0.10 uM,1.309
same,Z.LYZ.NS,ISC-enriched organoids [6]; Dose 0.20 uM,1.283
same,repSSMD.LYZ.NS,ISC-enriched organoids [6]; Dose 0.20 uM,1.683
same,Z.LYZ.NS,ISC-enriched organoids [6]; Dose 0.80 uM,1.317
same,repSSMD.LYZ.NS,ISC-enriched organoids [6]; Dose 0.80 uM,1.063
same,Z.LYZ.NS,ISC-enriched organoids [6]; dose 0.40 uM,0.805
same,repSSMD.LYZ.NS,ISC-enriched organoids [6]; dose 0.40 uM,1.064
"C=C1/C(=C\C=C2/CCC[C@]3(C)[C@@H]([C@H](C)CCCC(C)(C)O)CC[C@@H]23)C[C@@H](O)C[C@@H]1O [calcitriol, 1α,25-dihydroxyvitamin D3]",ISC differentiation (mRNA markers of epithelial cells),"[7]; 50 nM, 4 days, vs control culture",having the most profound effect
same,cell number,[7]; [8],a decrease in cell number
same,"markers of intestinal epithelial cells (mRNA), ISC differentiation",[7]; [8],an increase in markers of intestinal epithelial cells in a dose-dependent manner
same,"markers of intestinal epithelial cells (mRNA), ISC differentiation","[7]; calcitriol 1 nM to 100 nM, 4-day treatment, listed as Calcitriol","dose-dependent differentiation effect, primarily to goblet cells"
same,cell cycle markers,"[7]; calcitriol, 4 days",a weak connection to cell cycle inhibition
same,proliferation (Ki67),"[7]; calcitriol, 4 days, all doses",minimal change in proliferation at all doses
same,LGR5 expression,"[7]; increasing calcitriol dosage, 4 days",a clear reduction in LGR5
